In the supplement of paper PMC7017272:
± gives the standard deviation of the averaged measurements.

Legend:
[1] = system: UT-SCC-24A; experiment: drug sensitivity score (DSS); higher = more sensitive; conditions: treatment time: 3 days
Procedure: (§1)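 HNSCC cell lines (500 cells/well, 384-well) were cultured on plastic, on top of (2D) or embedded (3D) in Matrigel or human leiomyoma matrix Myogel (500 ug/mL; Myogel 3D mixed with rat collagen I). Cells were treated for 3 days with 5 ten-fold concentrations of each drug, and viability was read by CellTiter-Glo. Suffixes _1/_2/_3 on drug names are replicates.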

[2] = system: UT-SCC-44; experiment: relative IC50 (midpoint of the fitted curve; maximal inhibition may be below 50%); higher = less potent; conditions: treatment time: 3 days
Summary of the method: (§2)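 Three growth formats were used for HPV-negative HNSCC cell lines in 384-well plates at 500 cells/well: bare plastic, wells coated with Matrigel or Myogel (500 µg/mL), and embedding in Matrigel or Myogel plus rat collagen I. Compounds were added at five 10-fold concentrations, and after 3 days CellTiter-Glo 2.0 luminescence was recorded and normalised to vehicle (0.1% DMSO) and cell-killing control wells. IC50, maximal inhibition and drug sensitivity score came from percent-inhibition dose–response fitting in the FIMM pipeline.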

[3] = system: UT-SCC-106A; experiment: as above; conditions: treatment time: 3 days
Summary of the method: as §2

[4] = system: UT-SCC-73; experiment: as above; conditions: treatment time: 3 days
Summary of the method: as §2

[5] = system: UT-SCC-14; experiment: drug sensitivity score (DSS); higher = more sensitive; extreme values may be limits of the assay; conditions: treatment time: 3 days
Summary of the method: as §2

[6] = system: UT-SCC-28; experiment: as above; conditions: treatment time: 3 days
Summary of the method: as §2

[7] = system: UT-SCC-81; experiment: as above; conditions: treatment time: 3 days
Summary of the method: as §2

[8] = system: UT-SCC-44; experiment: as above; conditions: treatment time: 3 days
Summary of the method: as §2

[9] = system: UT-SCC-40; experiment: as above; conditions: treatment time: 3 days
Summary of the method: as §2

[10] = system: UT-SCC-42B; experiment: as above; conditions: treatment time: 3 days
Summary of the method: as §2

[11] = system: UT-SCC-8; experiment: as above; conditions: treatment time: 3 days
Summary of the method: as §2

[12] = system: UT-SCC-106A; experiment: as above; conditions: treatment time: 3 days
Summary of the method: as §2

[13] = system: UT-SCC-73; experiment: as above; conditions: treatment time: 3 days
Summary of the method: as §2

[14] = system: UT-SCC-24B; experiment: as above; conditions: treatment time: 3 days
Summary of the method: as §2

[15] = system: UT-SCC-42A; experiment: as above; conditions: treatment time: 3 days
Summary of the method: as §2

[16] = system: UT-SCC-24A; experiment: maximal % inhibition of viability relative to DMSO; higher = stronger effect; conditions: treatment time: 3 days
Procedure: as §1, with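 “CellTiter-Glo. Viability was normalised to DMSO (0% inhibition) and 100 uM benzethonium chloride (100% inhibition) controls and fitted with the FIMM DSRT pipeline to give IC50 (nM), maximal % inhibition and the drug sensitivity score (DSS).” for “CellTiter-Glo.”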

[17] = system: UT-SCC-24A; experiment: relative IC50 (midpoint of the fitted curve; maximal inhibition may be below 50%); higher = less potent; conditions: treatment time: 3 days
Procedure: as §1, with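 “CellTiter-Glo. Viability was normalised to DMSO (0% inhibition) and 100 uM benzethonium chloride (100% inhibition) controls and fitted with the FIMM DSRT pipeline to give IC50 (nM), maximal % inhibition and the drug sensitivity score (DSS).” for “CellTiter-Glo.”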

[18] = system: UT-SCC-40; experiment: relative IC50 (midpoint of the fitted curve; maximal inhibition may be below 50%); higher = less potent; conditions: culture condition: plastic 2D (no matrix); treatment time: 3 days
Summary of the method: as §2

[19] = system: UT-SCC-42B; experiment: as above; conditions: culture condition: on top of Myogel; treatment time: 3 days
Summary of the method: as §2

[20] = culture condition: embedded in Matrigel
[21] = culture condition: embedded in Myogel + collagen I
[22] = culture condition: on top of Matrigel
[23] = culture condition: on top of Myogel
[24] = culture condition: plastic 2D (no matrix)

Structure (SMILES): COc1ccc(-c2cc3c(C)nc(N)nc3n([C@H]3CC[C@H](OCCO)CC3)c2=O)cn1
- drug sensitivity score [1, 20]: 17 ± 7.7 DSS
- drug sensitivity score [1, 21]: 9.63 ± 6.9 DSS
- drug sensitivity score [1, 22]: 11.9 ± 4.7 DSS
- drug sensitivity score [1, 23]: 5.83 ± 2.9 DSS
- drug sensitivity score [1, 24]: 11.4 ± 7.7 DSS
- relative IC50 [2, 20]: 0.0789 µM
- relative IC50 [2, 23]: 0.805 µM
- relative IC50 [3, 20]: 0.0989 µM
- relative IC50 [3, 24]: 0.193 µM
- relative IC50 [4, 20]: 0.272 µM
- drug sensitivity score [5, 20]: 14.9 ± 7.8 DSS
- drug sensitivity score [5, 21]: 8.67 ± 4.7 DSS
- drug sensitivity score [5, 22]: 12.8 ± 5.7 DSS
- drug sensitivity score [5, 23]: 9.9 ± 2.5 DSS
- drug sensitivity score [5, 24]: 9.5 ± 2 DSS
- drug sensitivity score [6, 20]: 10.5 ± 5.4 DSS
- drug sensitivity score [6, 21]: 6.7 ± 5 DSS
- drug sensitivity score [6, 22]: 13.8 ± 2.3 DSS
- drug sensitivity score [6, 24]: 11.5 ± 1.7 DSS
- drug sensitivity score [7, 20]: 23.6 ± 11 DSS
- drug sensitivity score [7, 21]: 14.2 ± 7.1 DSS
- drug sensitivity score [7, 22]: 15.9 ± 7.3 DSS
- drug sensitivity score [7, 23]: 13.6 ± 6.6 DSS
- drug sensitivity score [7, 24]: 14.4 ± 8.1 DSS
- drug sensitivity score [8, 20]: 10.5 ± 1.6 DSS
- drug sensitivity score [8, 21]: 4.07 ± 2.6 DSS
- drug sensitivity score [8, 22]: 8.07 ± 0.71 DSS
- drug sensitivity score [8, 23]: 4.63 ± 1.3 DSS
- drug sensitivity score [8, 24]: 5.7 ± 0.1 DSS
- drug sensitivity score [9, 20]: 13.4 ± 5.6 DSS
- drug sensitivity score [9, 21]: 11.5 ± 5.7 DSS
- drug sensitivity score [9, 22]: 12.1 ± 5.5 DSS
- drug sensitivity score [9, 23]: 8.77 ± 3.4 DSS
- drug sensitivity score [9, 24]: 8.4 ± 3.7 DSS
- drug sensitivity score [10, 20]: 10.2 ± 4.3 DSS
- drug sensitivity score [10, 22]: 1.8 ± 1.7 DSS
- drug sensitivity score [10, 23]: 1 ± 0.87 DSS
- drug sensitivity score [10, 24]: 0.967 ± 0.58 DSS
- drug sensitivity score [11, 20]: 11.4 ± 2.5 DSS
- drug sensitivity score [11, 21]: 4.97 ± 1.8 DSS
- drug sensitivity score [11, 22]: 10.9 ± 3.1 DSS
- drug sensitivity score [11, 23]: 10.9 ± 3.6 DSS
- drug sensitivity score [11, 24]: 10.4 ± 2.7 DSS
- drug sensitivity score [12, 20]: 17.5 ± 1.9 DSS
- drug sensitivity score [12, 21]: 9.13 ± 3.2 DSS
- drug sensitivity score [12, 22]: 15 ± 3.7 DSS
- drug sensitivity score [12, 23]: 8.9 ± 4.4 DSS
- drug sensitivity score [12, 24]: 15.3 ± 3 DSS
- drug sensitivity score [13, 20]: 16 ± 2.9 DSS
- drug sensitivity score [13, 21]: 12.1 ± 4.3 DSS
- drug sensitivity score [13, 22]: 13.9 ± 2.8 DSS
- drug sensitivity score [13, 23]: 12.7 ± 3 DSS
- drug sensitivity score [13, 24]: 12.6 ± 4.8 DSS
- drug sensitivity score [14, 20]: 15.4 ± 3.6 DSS
- drug sensitivity score [14, 21]: 19.8 ± 1.6 DSS
- drug sensitivity score [14, 22]: 16.1 ± 1.8 DSS
- drug sensitivity score [14, 23]: 13.9 ± 1.9 DSS
- drug sensitivity score [14, 24]: 16.6 ± 3.5 DSS
- drug sensitivity score [15, 20]: 5.87 ± 2.1 DSS
- drug sensitivity score [15, 21]: 5.73 ± 2.2 DSS
- drug sensitivity score [15, 22]: 7.63 ± 4.4 DSS
- drug sensitivity score [15, 23]: 6.6 ± 2.3 DSS
- drug sensitivity score [15, 24]: 7.97 ± 3.2 DSS
- maximal % inhibition of viability [16, 20]: 79.2 ± 19%
- maximal % inhibition of viability [16, 21]: 61.6 ± 18%
- maximal % inhibition of viability [16, 22]: 71.5 ± 12%
- maximal % inhibition of viability [16, 23]: 54.5 ± 16%
- maximal % inhibition of viability [16, 24]: 72.1 ± 23%

Structure (SMILES): CO[C@H]1C[C@@H]2CC[C@@H](C)[C@@](O)(O2)C(=O)C(=O)N2CCCC[C@H]2C(=O)O[C@H]([C@H](C)C[C@@H]2CC[C@@H](O)[C@H](OC)C2)CC(=O)[C@H](C)/C=C(\C)[C@@H](O)[C@@H](OC)C(=O)[C@H](C)C[C@H](C)/C=C/C=C/C=C/1C [Sirolimus]
- relative IC50 [17, 21]: 0.00186 µM
- relative IC50 [17, 23]: 0.00201 µM
- drug sensitivity score [1, 20]: 9 ± 4.9 DSS
- drug sensitivity score [1, 21]: 16.4 ± 1.2 DSS
- drug sensitivity score [1, 22]: 12.7 ± 3.7 DSS
- drug sensitivity score [1, 23]: 13.7 ± 1.2 DSS
- drug sensitivity score [1, 24]: 12.9 ± 2.5 DSS
- relative IC50 [2, 21]: 0.00241 µM
- relative IC50 [2, 22]: 0.00179 µM
- relative IC50 [2, 24]: 0.00188 µM
- relative IC50 [18]: > 0.0989 µM
- relative IC50 [19]: > 0.0989 µM
- relative IC50 [4, 21]: 0.0263 µM
- relative IC50 [4, 23]: 0.012 µM
- relative IC50 [4, 24]: 0.0318 µM
- drug sensitivity score [5, 20]: 19.3 ± 2.1 DSS
- drug sensitivity score [5, 21]: 15.4 ± 2.7 DSS
- drug sensitivity score [5, 22]: 15.6 ± 3.3 DSS
- drug sensitivity score [5, 23]: 15.4 ± 3.1 DSS
- drug sensitivity score [5, 24]: 15.1 ± 3.8 DSS
- drug sensitivity score [6, 20]: 7.27 ± 5.1 DSS
- drug sensitivity score [6, 21]: 7.53 ± 7 DSS
- drug sensitivity score [6, 22]: 9.87 ± 0.93 DSS
- drug sensitivity score [6, 24]: 6.97 ± 1.6 DSS
- drug sensitivity score [7, 20]: 14.2 ± 4.6 DSS
- drug sensitivity score [7, 21]: 14.9 ± 2.7 DSS
- drug sensitivity score [7, 22]: 17.1 ± 1.8 DSS
- drug sensitivity score [7, 23]: 16.6 ± 2.1 DSS
- drug sensitivity score [7, 24]: 17.8 ± 1.2 DSS
- drug sensitivity score [8, 20]: 6.6 ± 5.8 DSS
- drug sensitivity score [8, 21]: 13.9 ± 2.7 DSS
- drug sensitivity score [8, 22]: 13.1 ± 0.99 DSS
- drug sensitivity score [8, 23]: 14.2 ± 3.2 DSS
- drug sensitivity score [8, 24]: 15 ± 1.4 DSS
- drug sensitivity score [9, 20]: 5.4 ± 4.9 DSS
- drug sensitivity score [9, 21]: 4.83 ± 4.2 DSS
- drug sensitivity score [9, 22]: 3.2 ± 5.5 DSS
- drug sensitivity score [9, 23]: 4.67 ± 4.1 DSS
- drug sensitivity score [9, 24]: 0 DSS
- drug sensitivity score [10, 20]: 3.47 ± 6 DSS
- drug sensitivity score [10, 22]: 3.07 ± 5.3 DSS
- drug sensitivity score [10, 23]: 0 DSS
- drug sensitivity score [10, 24]: 3.8 ± 3.4 DSS
- drug sensitivity score [11, 20]: 12.2 ± 11 DSS
- drug sensitivity score [11, 21]: 3.87 ± 6.7 DSS
- drug sensitivity score [11, 22]: 11.5 ± 10 DSS
- drug sensitivity score [11, 23]: 11.3 ± 9.8 DSS
- drug sensitivity score [11, 24]: 12.4 ± 11 DSS
- drug sensitivity score [12, 20]: 4.7 ± 4.3 DSS
- drug sensitivity score [12, 21]: 3.73 ± 3.3 DSS
- drug sensitivity score [12, 22]: 8.67 ± 3.8 DSS
- drug sensitivity score [12, 23]: 7.03 ± 3.8 DSS
- drug sensitivity score [12, 24]: 10 ± 3.3 DSS
- drug sensitivity score [13, 20]: 12.4 ± 4.3 DSS
- drug sensitivity score [13, 21]: 8.07 ± 1.6 DSS
- drug sensitivity score [13, 22]: 11.9 ± 5.2 DSS
- drug sensitivity score [13, 23]: 10.1 ± 0.81 DSS
- drug sensitivity score [13, 24]: 7.43 ± 0.31 DSS
- drug sensitivity score [14, 20]: 22.9 ± 0.36 DSS
- drug sensitivity score [14, 21]: 19.5 ± 4 DSS
- drug sensitivity score [14, 22]: 18.9 ± 4.8 DSS
- drug sensitivity score [14, 23]: 17.2 ± 3.4 DSS
- drug sensitivity score [14, 24]: 16.8 ± 4.1 DSS
- drug sensitivity score [15, 20]: 10.6 ± 4.6 DSS
- drug sensitivity score [15, 21]: 9.5 ± 0.92 DSS
- drug sensitivity score [15, 22]: 12.9 ± 1.6 DSS
- drug sensitivity score [15, 23]: 12.3 ± 1.6 DSS
- drug sensitivity score [15, 24]: 11.2 ± 0.82 DSS
- maximal % inhibition of viability [16, 20]: 69 ± 4.9%
- maximal % inhibition of viability [16, 21]: 77.4 ± 8.1%
- maximal % inhibition of viability [16, 22]: 71.57 ± 0.55%
- maximal % inhibition of viability [16, 23]: 65.5 ± 2.4%
- maximal % inhibition of viability [16, 24]: 67.9 ± 2.4%
